Assay results published in paper PMC12040169 (PLOS Biology, 2025).

Test: in vitro
Conditions: human, hela cells, % viability

In order of rising viability at 28.5 h, 10 µM:
1. O=C(CSc1ccc2ccccc2n1)Nc1ccnc2ccccc12 [CBK176848]  78.1%
2. Cc1cnn(C2CCCN(C(=O)CC3C(=O)Nc4ccccc43)C2)c1 (stereo not drawn) [CBK304930]  81.7%
3. CC1CC1C(=O)NC1CCN(CC2(c3ccccc3)CC2)CC1 (stereo not drawn) [CBK285353]  83.2%
4. O=C(NCc1ccccn1)c1cc(-c2ccc(Cl)cc2)on1 [CBK116558]  83.8%
5. O=S(=O)(CC(F)(F)F)Nc1cccc(-c2nnn[nH]2)c1 [CBK154272]  83.9%
6. CC1(C)CCCC1NC(=O)NCc1cccc(-c2nnc[nH]2)c1 (stereo not drawn) [CBK305236]  83.9%
7. CCNC(=O)N1CCC[C@@H](O)[C@H](NC(=O)c2ccc(OCc3c(C)noc3C)cc2)C1 [CBK289068]  84.2%
8. O=C(c1cccc2ncccc12)N1CCC(c2ccncc2)CC1 [CBK283798]  84.2%
9. COc1ccc(C2CC(=O)C(=CNCCCN3CCOCC3)C(=O)C2)cc1 (stereo not drawn) [CBK263647]  84.9%
10. O=C(Cc1ncc(C(F)(F)F)cc1Cl)NO [CBK007437]  85%
11. OCc1ccc(-c2nccnc2NCC2CC2)cc1 [CBK037334]  86%
12. O=C(Nc1cccnc1)c1ccc(NC(=O)C2OCCc3ccccc32)cc1 (stereo not drawn) [CBK269963]  86.6%
13. N#CCCCN1CCC(Oc2nccnc2OCC2COc3ccccc3O2)CC1 (stereo not drawn) [CBK082994T]  86.8%
14. Cn1ncc(N)c1C(=O)Nc1cccc(Cl)c1 [CBK270107]  87.6%
15. Cc1nnc(Sc2cc(C(F)(F)F)ccn2)s1 [CBK115215]  87.6%
16. COCC(=O)N1CC[C@H](c2nnc(-c3ccncc3)o2)C1 [CBK289413]  88%
17. COc1ccc(Nc2nc(N)nc(CSCCO)n2)cc1 [CBK266714]  88.3%
18. Cc1ccc(C(=O)NCc2nc3ccccc3[nH]2)c(N2CCOCC2)n1 [CBK106200]  88.4%
19. FC(F)(F)c1cc(NCCC2CCCCN2)cc(C(F)(F)F)c1 (stereo not drawn) [CBK016963]  88.6%
20. O=C1c2ccc(Oc3ccc4c(c3)C(=O)N(c3cccnc3)C4=O)cc2C(=O)N1c1cccnc1 [CBK262773]  88.6%
21. Cn1cccc1C(=O)N[C@H]1CCN2C(=O)N(c3cccc(F)c3)C(=O)[C@@H]2C1 [CBK289549]  88.8%
22. O=C(C[C@@H]1O[C@H](CNCc2cccc(Cl)c2)[C@@H](O)[C@H]1O)N1CCc2ccccc21 [CBK288918]  89%
23. O=C(O)CCSC1CC(=O)N(c2ccc(F)cc2)C1=O (stereo not drawn) [CBK276120]  89.9%
24. CCOc1ccc(-c2cn(C(=O)Nc3ccccc3)nc2N)cc1 [CBK267317]  90.3%
25. COc1cc(C2=NS(=O)(=O)NC3=C2CCCC3)cc(OC)c1OC [CBK010423]  90.3%
26. CN1CCN(C(=O)c2ccc(-c3cnc(N)c(-c4ccc(O)cc4)n3)cc2F)CC1 [CBK200421]  90.6%
27. CCP(CC)c1ccc(C(=O)O)cc1 [CBK019342B]  91.1%
28. CCOc1cc(/C=C(/C#N)C(N)=S)ccc1OCC(=O)N1CCCC1 [CBK268765]  91.3%
29. CCC1CCCCN1Cc1nc2c(c(=O)n(C)c(=O)n2C)n1CCCO (stereo not drawn) [CBK269365]  91.8%
30. CC1c2ccsc2CCN1C(=O)COc1cccc(Br)c1 (stereo not drawn) [CBK305434]  91.9%
31. CCNc1cncc(-c2cncc(OC)c2)n1 [CBK065366]  91.9%
32. COc1ccc([C@H]2CN(Cc3ccccc3)C[C@@H]2NC(C)=O)cc1 [CBK282930]  92.1%
33. Cc1cc2nc(/C(C#N)=C/c3cc(C)n(-c4ccc(C(=O)O)cc4)c3C)[nH]c2cc1C [CBK269105]  92.1%
34. O=C(NCc1cccnc1OCC(F)(F)F)c1ccc(=O)[nH]n1 [CBK305578]  92.1%
35. NC(Cc1ccc(Cl)cc1)C(=O)N(CCc1cc(C(F)(F)F)cc(C(F)(F)F)c1)c1cccc2ccccc12 (stereo not drawn) [CBK008674T]  92.5%
36. CCn1c(N2CCC(C(=O)NC3CC3)CC2)nc2ccccc21 [CBK283922]  92.7%
37. Cc1cc(C2CCCCCN2S(=O)(=O)c2ccc3[nH]c(=O)[nH]c(=O)c3c2)on1 (stereo not drawn) [CBK286405]  93.6%
38. CCOC(=O)NC(Nc1nc2ccccc2s1)(C(F)(F)F)C(F)(F)F [CBK008913]  93.6%
39. CN(C)c1cccc(Nc2ncc(-c3ccc(N4CCOCC4)cc3)n3ccnc23)c1 [CBK091222]  94.5%
40. CCN(CCC(C)c1ccccc1)CCN(C)C (stereo not drawn) [CBK261914]  94.6%
41. CS(=O)(=O)N1CCN(c2ccccc2NC(=O)Cc2ccc(Cl)cc2)CC1 [CBK267605]  94.9%
42. CC(=O)NC1(c2ccccc2)CCN(C(=O)Nc2ccccc2-c2ccccc2)CC1 [CBK286288]  94.9%
43. CN(C)CCN(C)C(=O)c1ccc(-c2ccccc2CO)nc1N(C)C [CBK076591]  95%
44. CC1CCCN(C(=O)c2ccc(-n3ccnc3)c(-n3cccc3)c2)C1 (stereo not drawn) [CBK285370]  95.1%
45. CCN1CCN(Cc2c(C(F)(F)F)[nH]c3ncccc23)CC1 [CBK285362]  95.2%
46. OCCN(CCO)c1cncc(-c2ccc(Cl)cc2)n1 [CBK065748]  95.2%
47. CNc1ccc2cccc(OCCO)c2n1 [CBK149727]  95.6%
48. O=C(CSc1ccc2nnc(-c3ccccc3)n2n1)NCC1CCCO1 (stereo not drawn) [CBK287515]  96.6%
49. CC1CC1C(=O)NCCN1CCC(O)(c2ccc(F)cc2)CC1 (stereo not drawn) [CBK283168]  96.7%
50. CCCN(C(C)C(=O)N(C)C)S(=O)(=O)c1ccc(Cl)cc1 (stereo not drawn) [CBK016123]  96.8%
51. Cc1nc2c(C)cccc2c(O)c1CN1CCCCCC1 [CBK264512]  98.1%
52. Cc1cccc(OCC(C)NC(=O)NCCc2cnn(C)c2)c1 (stereo not drawn) [CBK304887]  98.5%
53. Cc1cccc(OCc2nnc(SCc3nc4ccccc4c(=O)[nH]3)o2)c1 [CBK269030]  98.7%
54. Cc1ccc(S(=O)(=O)CC(=O)N2CCCC3(CCN(C(=O)c4cc(F)c(F)cc4F)C3)C2)cc1 (stereo not drawn) [CBK131558]  99%
55. Cc1ncsc1C(=O)N1CCC(c2cccc(Cc3ccccc3Cl)n2)CC1 [CBK286146]  99.2%
56. NC(=O)COc1ccc(CNC(=O)CN2CCc3sccc3C2)cc1 [CBK306111]  99.4%
57. O=C(O)c1ccc(NC(=O)c2cn(-c3ccccc3)nc2-c2cc3ccccc3oc2=O)cc1 [CBK266432]  99.8%
58. CC(Oc1ccc(/C=C/[N+](=O)[O-])cc1)C(=O)O (stereo not drawn) [CBK264042]  99.9%
59. O=C(c1ccc(Br)o1)N1CCc2ccc(S(=O)(=O)N3CCOCC3)cc21 [CBK028953]  100%
60. OCCN1CCN(c2cc(N3CCN(c4ccccn4)CC3)n3nccc3n2)CC1 [CBK037129]  100%
61. OCCC1CCCCN1c1cncc(C2CCOC2)n1 (stereo not drawn) [CBK066127]  101%
62. Cc1n[nH]c(=O)c2c(C)noc12 [CBK001281]  101%
63. Cc1nc(CC(NC(=O)C(c2ccccc2)c2ccccc2)c2ccc(F)cc2)cc(=O)[nH]1 (stereo not drawn) [CBK285669]  101%
64. CN1CCN(CCCNC(=O)N2CCN(c3ccccc3)CC2)CC1 [CBK155168]  101%
65. O=C(CCn1cnc2ccccc2c1=O)Nc1ccccc1C(F)(F)F [CBK270056]  101%
66. CCc1nc2sc(C(N)=O)c(N)c2c2c1CCCC2 [CBK131872]  101%
67. CCOC(=O)CN1CCN(c2nccnc2OC2CCCCC2)CC1 [CBK082837T]  102%
68. COc1ncc(-c2nccnc2OCC2COc3ccccc3O2)c(OC)n1 (stereo not drawn) [CBK106754]  102%
69. O=C(O)c1cc2nc3c(c(C(F)(F)F)n2n1)CCc1ccccc1-3 [CBK263025]  102%
70. Cc1nc(C)c(CCC(=O)N2CCCCC2Cn2cccn2)c(=O)[nH]1 (stereo not drawn) [CBK305310]  102%
71. CC(C)(CO)CNc1nc(-c2ccsc2)cnc1N [CBK063499]  103%
72. CCCNC(=O)C[C@@H]1CCN(S(=O)(=O)c2c(C)noc2C)C[C@@H]1CC [CBK288780]  103%
73. COc1ccc(-c2cnc(N)c(N3CCN(C)CC3)n2)c(OC)c1OC [CBK063489]  103%
74. COc1ccc(C(=O)N2CCC3(CCN(CCN4CCCCC4)C3)C2)cc1OC (stereo not drawn) [CBK137113T]  103%
75. CCCn1c(SCC(=O)Nc2cc(C(C)(C)C)no2)n[nH]c1=O [CBK295648]  104%
76. O=C(O)COc1ccc(S(=O)(=O)Nc2ccc(F)cc2)cc1 [CBK268442]  105%
77. Cc1nccn1CC1(O)CCN(Cc2ccccc2F)CC1 [CBK284961]  105%
78. Cc1nc(C)c(C(=O)Nc2c(C)noc2C)s1 [CBK200313]  105%
79. O=C1CSC2(C(=O)Nc3ccccc32)N1c1ccc2ccccc2c1 (stereo not drawn) [CBK093461]  106%
80. COc1ccc(Cl)cc1C(=O)Nc1cc(C)c2c(=O)oc3ccccc3c2n1 [CBK291196]  108%
81. COc1ccc(NC(=O)CSc2nc(N)n[nH]2)cc1Cl [CBK268065]  108%
82. c1ccc2sc(SCCN3CCCCC3)nc2c1 [CBK016366]  109%
83. CN(C)CCCN1C(=O)C(O)=C(C(=O)c2ccccc2)C1c1ccccn1 (stereo not drawn) [CBK287778]  110%
84. COc1cc(-c2cc(N(C)CCN(C)C)n3nccc3n2)cc(OC)c1OC [CBK037181]  110%
85. CC(=O)N1CC[C@H]2NC(=O)CNC(=O)C3(CCCC[C@H]2C1)CCN(C(=O)CCn1ccnc1)CC3 [CBK292138]  111%
86. Cc1sc2nc(SCc3nc4ccccc4[nH]3)n(Cc3ccco3)c(=O)c2c1C [CBK267554]  112%
87. Cc1nc(-c2ccccc2)ncc1COC(=O)N1CCOCC1 [CBK200147]  112%
88. O=C(COc1ccccc1Cl)N/N=C/c1ccc(-c2ccccc2[N+](=O)[O-])o1 [CBK262782]  112%
89. O=C(CC(C(=O)O)P(=O)(c1ccccc1)c1ccccc1)c1ccccc1 (stereo not drawn) [CBK264971]  114%
90. NCCCNc1ccc(C(=O)Nc2ccc(Cl)cc2)cc1[N+](=O)[O-] [CBK267880]  116%
